Measured values: ChEMBL document CHEMBL4020778, “Recent progress towards clinically relevant ATP-competitive Akt inhibitors” (Bioorg Med Chem Lett, 2017)

Assays:
Homo sapiens [1] = species on record: Homo sapiens; assay: Inhibition of PKA (unknown origin) at 10 uM relative to control
[2] = biological target: cAMP-dependent protein kinase catalytic subunit alpha (Homo sapiens, UniProt P17612); assay: Inhibition of recombinant human His-tagged PKA catalytic domain (1 to 351 residues) expressed in Escherichia coli using Ser/Thr 7 as substrate after 1 hr by FRET-based Z'-Lyte assay
[3] = biological target: Glycogen synthase kinase-3 beta (Homo sapiens) (UniProt P49841); assay: Inhibition of GSK3beta phosphorylation at ser9 in human U87MG cells at >1 uM by Western blot analysis relative to control; assay type: cell-based
Homo sapiens [4] = species on record: Homo sapiens; assay: Inhibition of MSK (unknown origin) at 10 uM relative to control
[5] = biological target: Ribosomal protein S6 kinase alpha-1/alpha-3 (Homo sapiens) (UniProt P51812+Q15418); assay: Inhibition of RSK1/2 (unknown origin) at 10 uM relative to control; assay type: protein assay
[6] = test system: T1, Serine/threonine-protein kinase Sgk1 (Homo sapiens), O00141 [S422D]; assay: Inhibition of human SGK1 S422D mutant (60 to 431 residues) at 10 uM using substrate after 5 mins in presence of [33P]ATP by scintillation counting method relative to control
T1 sequence (whole entry): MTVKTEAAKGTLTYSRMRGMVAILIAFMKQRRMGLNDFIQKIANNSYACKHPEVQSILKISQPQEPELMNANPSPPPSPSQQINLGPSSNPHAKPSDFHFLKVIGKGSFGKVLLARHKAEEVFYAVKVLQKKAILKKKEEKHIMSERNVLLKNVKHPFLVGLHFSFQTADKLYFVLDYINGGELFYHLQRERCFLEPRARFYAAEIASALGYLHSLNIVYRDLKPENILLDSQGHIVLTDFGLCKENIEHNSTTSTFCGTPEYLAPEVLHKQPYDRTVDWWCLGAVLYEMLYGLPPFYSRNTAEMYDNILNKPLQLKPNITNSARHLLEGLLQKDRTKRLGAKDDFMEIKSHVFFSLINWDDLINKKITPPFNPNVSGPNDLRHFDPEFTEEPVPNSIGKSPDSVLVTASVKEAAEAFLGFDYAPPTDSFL

[7] = biological target: Rho-associated protein kinase 2 (Rattus norvegicus) (UniProt Q62868); assay: Inhibition of rat ROCK2 (2 to 543 residues) at 10 uM using substrate after 5 mins in presence of [33P]ATP by scintillation counting method relative to control
[8] = Half life in Balb/c mouse at 5 mg/kg, iv by LC-MS/MS analysis; assay type: ADME, organism-based; settings: in vivo
[9] = Ratio of drug level in tumor to plasma in CrTac:Ncr-Fox1nu mouse at 40 mg/kg, po administered once daily for 2 days measured after 24 hrs post last dose; assay type: ADME, organism-based
BT-474 = assay: Anti-tumor activity against human BT474 cells xenografted in CrTac:Ncr-Fox1nu mouse assessed as reduction in tumor weight at 40 mg/kg, po administered once daily for 2 days measured after 26 days relative to control; assay type: functional
[10] = test system: Ribosomal protein S6 kinase beta-1 (Homo sapiens), P23443 [T412E]; assay: Inhibition of human p70S6K T412E mutant (1 to 421 residues) at 10 uM using substrate after 5 mins in presence of [33P]ATP by scintillation counting method relative to control
[11] = biological target: Rho-associated protein kinase 1 (Homo sapiens) (UniProt Q13464); assay: Inhibition of ROCK1 (unknown origin) at 10 uM relative to control
Chain of Rho-associated protein kinase 1 (Homo sapiens) (Q13464 2-1354 limits assumed): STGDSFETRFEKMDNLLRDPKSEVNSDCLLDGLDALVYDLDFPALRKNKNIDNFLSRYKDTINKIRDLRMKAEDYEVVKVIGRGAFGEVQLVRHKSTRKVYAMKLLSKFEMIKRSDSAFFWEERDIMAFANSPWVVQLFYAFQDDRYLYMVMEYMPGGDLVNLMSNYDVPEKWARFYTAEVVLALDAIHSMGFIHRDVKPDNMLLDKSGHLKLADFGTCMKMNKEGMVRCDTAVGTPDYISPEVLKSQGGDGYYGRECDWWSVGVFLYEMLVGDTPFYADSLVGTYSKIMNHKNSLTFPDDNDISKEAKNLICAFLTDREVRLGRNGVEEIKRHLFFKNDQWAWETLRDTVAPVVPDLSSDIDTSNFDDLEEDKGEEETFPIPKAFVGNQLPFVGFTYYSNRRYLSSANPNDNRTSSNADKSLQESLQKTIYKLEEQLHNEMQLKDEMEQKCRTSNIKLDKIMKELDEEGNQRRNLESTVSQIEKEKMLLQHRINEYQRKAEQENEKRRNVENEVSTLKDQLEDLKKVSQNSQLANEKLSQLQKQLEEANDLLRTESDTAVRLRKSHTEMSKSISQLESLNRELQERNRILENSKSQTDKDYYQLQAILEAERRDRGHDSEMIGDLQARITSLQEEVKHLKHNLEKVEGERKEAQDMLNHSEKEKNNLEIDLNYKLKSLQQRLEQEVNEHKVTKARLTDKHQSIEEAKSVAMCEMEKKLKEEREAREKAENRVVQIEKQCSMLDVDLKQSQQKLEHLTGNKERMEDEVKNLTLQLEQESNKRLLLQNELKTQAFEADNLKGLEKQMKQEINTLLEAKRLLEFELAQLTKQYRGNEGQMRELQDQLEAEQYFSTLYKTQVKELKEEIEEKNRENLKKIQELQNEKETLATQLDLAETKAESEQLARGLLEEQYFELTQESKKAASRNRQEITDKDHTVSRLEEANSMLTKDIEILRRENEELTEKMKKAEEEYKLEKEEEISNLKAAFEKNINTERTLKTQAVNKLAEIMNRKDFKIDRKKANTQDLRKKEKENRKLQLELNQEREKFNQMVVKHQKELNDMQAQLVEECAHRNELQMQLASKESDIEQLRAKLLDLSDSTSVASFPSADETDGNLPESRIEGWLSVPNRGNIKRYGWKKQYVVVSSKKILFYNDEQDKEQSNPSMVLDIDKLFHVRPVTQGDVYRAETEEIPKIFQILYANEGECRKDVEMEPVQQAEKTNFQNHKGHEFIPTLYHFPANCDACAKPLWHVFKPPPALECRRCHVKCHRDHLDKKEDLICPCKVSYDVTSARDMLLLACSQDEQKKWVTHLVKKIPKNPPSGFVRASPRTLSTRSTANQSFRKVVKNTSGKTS

Chain of Ribosomal protein S6 kinase beta-1 (Homo sapiens), P23443 [T412E] (P23443 whole entry T412E, looked up, the tested form may be a part): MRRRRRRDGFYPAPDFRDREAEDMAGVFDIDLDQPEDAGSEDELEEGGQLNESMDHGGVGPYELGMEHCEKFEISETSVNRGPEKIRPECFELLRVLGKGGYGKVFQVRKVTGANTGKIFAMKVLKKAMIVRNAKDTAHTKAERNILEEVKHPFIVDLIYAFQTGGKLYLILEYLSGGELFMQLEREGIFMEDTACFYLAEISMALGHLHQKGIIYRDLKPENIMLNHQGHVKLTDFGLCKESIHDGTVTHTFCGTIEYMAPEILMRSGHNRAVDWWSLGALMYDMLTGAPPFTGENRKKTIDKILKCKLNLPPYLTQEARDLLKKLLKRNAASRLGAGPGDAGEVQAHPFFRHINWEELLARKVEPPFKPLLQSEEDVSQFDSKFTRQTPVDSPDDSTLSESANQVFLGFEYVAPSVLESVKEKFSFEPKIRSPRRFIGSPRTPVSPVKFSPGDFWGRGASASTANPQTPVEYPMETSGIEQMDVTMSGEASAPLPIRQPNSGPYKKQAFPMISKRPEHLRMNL
Chain of Glycogen synthase kinase-3 beta (Homo sapiens) (P49841 whole entry, looked up): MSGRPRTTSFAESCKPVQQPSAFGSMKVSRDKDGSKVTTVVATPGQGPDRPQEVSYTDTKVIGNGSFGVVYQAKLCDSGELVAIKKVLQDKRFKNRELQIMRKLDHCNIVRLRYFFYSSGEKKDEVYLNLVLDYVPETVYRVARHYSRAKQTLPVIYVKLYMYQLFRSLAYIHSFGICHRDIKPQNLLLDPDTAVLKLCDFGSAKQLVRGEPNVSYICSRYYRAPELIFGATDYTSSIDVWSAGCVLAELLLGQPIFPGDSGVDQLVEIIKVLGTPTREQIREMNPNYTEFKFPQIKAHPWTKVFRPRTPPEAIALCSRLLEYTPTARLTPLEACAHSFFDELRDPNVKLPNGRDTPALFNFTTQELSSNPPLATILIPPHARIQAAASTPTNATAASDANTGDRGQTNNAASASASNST
Chain of Ribosomal protein S6 kinase alpha-1/alpha-3 (Homo sapiens) (P51812 whole entry, looked up, the tested form may be a part): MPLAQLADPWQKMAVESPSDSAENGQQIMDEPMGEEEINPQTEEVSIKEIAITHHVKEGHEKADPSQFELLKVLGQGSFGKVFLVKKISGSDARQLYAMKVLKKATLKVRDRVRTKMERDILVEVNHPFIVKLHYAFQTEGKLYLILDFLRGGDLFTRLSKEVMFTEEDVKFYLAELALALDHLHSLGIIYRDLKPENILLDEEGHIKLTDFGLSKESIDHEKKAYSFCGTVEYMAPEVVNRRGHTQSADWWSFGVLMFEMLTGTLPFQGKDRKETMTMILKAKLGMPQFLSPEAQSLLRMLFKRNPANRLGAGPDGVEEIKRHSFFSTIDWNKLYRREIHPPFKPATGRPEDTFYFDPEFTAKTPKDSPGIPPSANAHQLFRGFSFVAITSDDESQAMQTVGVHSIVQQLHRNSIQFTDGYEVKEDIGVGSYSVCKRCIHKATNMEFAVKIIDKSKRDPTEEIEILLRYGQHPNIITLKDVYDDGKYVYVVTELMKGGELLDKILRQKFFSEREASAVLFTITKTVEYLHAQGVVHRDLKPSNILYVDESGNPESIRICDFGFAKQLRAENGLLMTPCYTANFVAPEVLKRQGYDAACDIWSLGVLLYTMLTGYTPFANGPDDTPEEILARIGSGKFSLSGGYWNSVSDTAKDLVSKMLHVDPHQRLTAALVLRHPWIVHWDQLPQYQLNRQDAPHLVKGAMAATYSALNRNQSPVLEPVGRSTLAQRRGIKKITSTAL
Chain of Ribosomal protein S6 kinase alpha-1/alpha-3 (Homo sapiens) (Q15418 whole entry, looked up, the tested form may be a part): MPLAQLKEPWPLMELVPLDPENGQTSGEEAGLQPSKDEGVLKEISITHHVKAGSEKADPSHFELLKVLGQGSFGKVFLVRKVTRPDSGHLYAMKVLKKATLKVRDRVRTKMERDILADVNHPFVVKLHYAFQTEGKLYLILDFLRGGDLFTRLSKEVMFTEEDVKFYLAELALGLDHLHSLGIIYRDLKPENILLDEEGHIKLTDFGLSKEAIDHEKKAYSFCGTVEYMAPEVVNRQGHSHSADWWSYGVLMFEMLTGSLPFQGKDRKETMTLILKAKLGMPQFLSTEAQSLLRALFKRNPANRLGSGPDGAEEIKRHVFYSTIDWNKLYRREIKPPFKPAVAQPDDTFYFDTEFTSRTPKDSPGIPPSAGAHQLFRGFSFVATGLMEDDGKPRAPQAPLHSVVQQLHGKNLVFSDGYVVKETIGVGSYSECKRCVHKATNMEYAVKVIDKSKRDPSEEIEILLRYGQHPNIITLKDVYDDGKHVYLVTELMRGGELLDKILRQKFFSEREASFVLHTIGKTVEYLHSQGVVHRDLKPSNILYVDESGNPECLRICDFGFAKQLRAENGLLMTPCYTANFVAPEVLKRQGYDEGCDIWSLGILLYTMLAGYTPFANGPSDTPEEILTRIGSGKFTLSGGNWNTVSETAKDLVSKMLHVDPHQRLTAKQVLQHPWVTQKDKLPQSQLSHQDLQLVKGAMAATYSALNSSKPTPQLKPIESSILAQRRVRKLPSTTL

Structure (SMILES): NC[C@@](O)(c1ccc(Cl)cc1)c1ccc(-c2cn[nH]c2)cc1 [AT-13148]
- inhibition (Homo sapiens [1]): > 80%
- IC50 [2]: < 0.01 µM
- inhibition [3]: 50%
- inhibition (Homo sapiens [4]): > 80%
- inhibition [5]: > 80%
- inhibition [6]: > 80%
- inhibition [7]: > 80%
- half-life [8]: 2.8 h
- Kp at 24 h [9]: 13.6
- T/C (BT-474): 36%
- inhibition [10]: > 80%
- inhibition [11]: > 80%
